{
  "source": "patent US7271161B2",
  "about": "“Platinum complexes as antitumor agents in combination with biochemical modulation” (Board of Regents, the University of Texas System, priority 2002, dated 2007)",
  "key": {"[1]": {"molecular_target": "T1, γ-Glutamylcysteine synthetase (Rattus norvegicus, UniProt P19468)", "T1 sequence (P19468 1-637)": "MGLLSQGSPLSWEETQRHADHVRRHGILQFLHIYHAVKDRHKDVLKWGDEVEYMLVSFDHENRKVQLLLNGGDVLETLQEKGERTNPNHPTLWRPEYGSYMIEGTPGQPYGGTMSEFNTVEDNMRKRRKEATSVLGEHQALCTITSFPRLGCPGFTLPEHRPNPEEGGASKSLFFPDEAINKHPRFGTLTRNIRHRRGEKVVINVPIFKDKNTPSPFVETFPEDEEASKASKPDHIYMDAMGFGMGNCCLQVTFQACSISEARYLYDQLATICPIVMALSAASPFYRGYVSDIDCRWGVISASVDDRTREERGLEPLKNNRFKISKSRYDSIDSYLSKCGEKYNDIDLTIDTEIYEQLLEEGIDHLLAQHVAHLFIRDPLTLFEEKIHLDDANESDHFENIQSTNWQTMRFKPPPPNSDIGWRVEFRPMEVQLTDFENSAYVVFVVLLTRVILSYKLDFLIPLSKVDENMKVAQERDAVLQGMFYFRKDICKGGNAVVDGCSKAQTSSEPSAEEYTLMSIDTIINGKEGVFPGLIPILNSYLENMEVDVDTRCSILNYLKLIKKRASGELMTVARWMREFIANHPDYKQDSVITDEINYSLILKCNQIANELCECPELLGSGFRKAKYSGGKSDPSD", "details": "cited from earlier work"}, "[2]": {"system": "human melanoma cell line (RPMI 8322)", "details": "cited from earlier work"}, "2008 cell line": {"system": "2008 cell line", "experiment": "MTT cytotoxicity assay, cisplatin-sensitive ovarian 2008 cells, with or without BSO", "format": "cell-based, Human", "details": "for IC50: Table 4", "excerpt": "(§1) The ovarian A2780 and 2008 cell lines are sensitive to cisplatin, while the corresponding 2780CP and 2008/C13* cell lines were selected for resistance following in vitro exposure to cisplatin. The SKOV-3 cell line was established from a patient who was resistant to cisplatin therapy and is considered a model of cisplatin resistance. The A2780 and 2780CP cells have wild-type p53 function, while SKOV-3 is devoid of p53 function. The p53 status for the 2008 and 2008/C131 cells is presently not known.\n(§2) Procedure for Cytotoxic Evaluation. All cell lines are maintained in RPMI 1640 medium supplemented with 10% fetal bovine serum, 50 μg/ml penicillin, 50 μg/ml streptomycin, 100 μg/ml neomycin and 0.3 mg/ml L-glutamine. The ovarian lines also require 2 μg/ml insulin for maximal growth. Cells are grown as monolayers at 37° C. in a humidified atmosphere of 5% CO2:95% air. Cytotoxicity is determined by a standard MTT assay. Briefly, the exponentially-growing cells are trypsinized to dislodge them before use. After diluting the tumor cells to appropriate concentrations (2,000-30,000 cells/ml), 100 μl aliquots of the cell suspensions are added to each well of a 96-well microtiter plate. The cells are allowed to attach overnight, and then exposed for 24 hr to BSO at a concentration that is equal to or less than maximally tolerated concentration (MTC). At 22 hr after addition of BSO, the platinum complex is added, and 2 hr later the cells are washed and reincubated. After another 5 days, when control cells are in an exponential phase of growth, 50 μl of an MTT solution (3 mg/ml) is added to each well. Following a 3-hr incubation, the medium is removed and replaced by 50 μl of 100% DMSO to dissolve MTT formazan crystals. Plates are agitated on a plate shaker for 5 min, and absorbances are measured at 570 nm in a multiwell scanning spectrophotometer.\n(§3) IC50 values, defined as the drug concentration (μM) inhibiting cell growth by 50% compared to control wells, are determined by fitting a sigmoidal curve to the data using a computer program. Resistance factor is calculated as a ratio of the IC50 against resistant cell line to the IC50 against parent cell line. The dose modification factor (DMF) is derived from a ratio of IC50 without BSO to that with BSO."}, "Human 2780CP cell line": {"system": "Human 2780CP cell line", "experiment": "MTT cytotoxicity assay, cisplatin-resistant ovarian 2780CP cells, with or without BSO", "format": "cell-based", "set-up": "key to DMF vs. 2780CP Control (Without BSO) / DMF Control / DMF +BSO (MTC): DMF = IC50 without BSO / IC50 with BSO", "details": "for IC50: Table 4", "excerpt": "as §1, §2, §3"}, "Human A2780 cell line": {"system": "Human A2780 cell line", "experiment": "MTT cytotoxicity assay, cisplatin-sensitive ovarian A2780 cells, with or without BSO", "format": "cell-based", "details": "for IC50: Table 4", "excerpt": "as §1, §2, §3"}, "SKOV-3 cell line": {"system": "SKOV-3 cell line", "experiment": "MTT cytotoxicity assay, cisplatin-resistant SKOV-3 cells, with or without BSO", "format": "cell-based, Human", "details": "for IC50: Table 4; for IC50 / DMF +BSO (MTC) / DMF Control: SKOV-3; for DMF +BSO (MTC) / DMF Control: Table 5; for DMF Control: absence of BSO (reference)", "excerpt": "as §1, §2, §3"}, "2008/C13* cell line": {"system": "2008/C13* cell line", "experiment": "MTT cytotoxicity assay, cisplatin-resistant ovarian 2008/C13* cells, with or without BSO", "format": "cell-based, Human", "details": "for IC50: Table 4", "excerpt": "as §1, §2, §3"}, "[3]": {"system": "sensitive and resistant cells", "details": "cited from earlier work"}, "[4]": {"details": "BSO at sub-MTC, read-out: IC50 +BSO (MTC)"}, "[5]": {"details": "absence of BSO, read-out: IC50 Control"}},
  "note": "Like-named read-outs stand apart in the source and are kept apart here.",
  "data": [
    {"smiles": "CCCCS(=N)(=O)CCC(N)C(=O)O", "note": "(stereo not shown) [S-butyl homocysteine sulfoximine]", "values": [
      {"measurement": "inhibition effectiveness relative to methionine sulfoximine", "setting": "[1]; vs. methionine sulfoximine", "result": "at least 100 times"},
      {"measurement": "inhibition effectiveness relative to prothionine sulfoximine", "setting": "[1]; vs. prothionine sulfoximine", "result": "about 20 times"}
    ]},
    {"smiles": "N[C@@H](Cc1ccc(N(CCCl)CCCl)cc1)C(=O)O", "note": "[melphalan]", "values": [
      {"measurement": "effect of BSO pretreatment on cytotoxicity", "setting": "[2]", "result": "enhanced cytotoxicity"}
    ]},
    {"smiles": "N.N.[Cl][Pt][Cl]", "note": "[Complex 1, cis-diamminedichloroplatinum, reference compound]", "values": [
      {"measurement": "dose modification factor (DMF), potentiation by BSO", "setting": "[2]; BSO pretreatment, RPMI 8322", "result": 1.5},
      {"measurement": "IC50", "setting": "2008 cell line; 2008, BSO at MTC, read-out: IC50 +BSO (MTC)", "result": 770, "unit": "nM"},
      {"measurement": "IC50", "setting": "2008 cell line; 2008, absence of BSO, read-out: IC50 Control", "result": 1420, "unit": "nM"},
      {"measurement": "DMF +BSO (MTC)", "setting": "2008 cell line; Table 5, 2008, BSO at MTC", "result": 1.84},
      {"measurement": "DMF Control", "setting": "2008 cell line; Table 5, 2008, absence of BSO (reference)", "result": 1.00},
      {"measurement": "RF Control", "setting": "2008 cell line; Table 6, 2008 parent line without BSO (reference)", "result": 1.00},
      {"measurement": "Resistance Factor vs. 2780CP +10 μM BSO", "setting": "Human 2780CP cell line; IC50 2780CP with 10 μM BSO / IC50 A2780 without BSO", "result": 12.1},
      {"measurement": "Resistance Factor vs. 2780CP +3 mM BSO (MTC)", "setting": "Human 2780CP cell line; IC50 2780CP with 3 mM BSO (MTC) / IC50 A2780 without BSO", "result": 8.63},
      {"measurement": "Resistance Factor vs. 2780CP Control (Without BSO)", "setting": "Human 2780CP cell line; IC50 2780CP without BSO / IC50 A2780 without BSO", "result": 14.9},
      {"measurement": "IC50", "setting": "Human 2780CP cell line; 2780CP, BSO at MTC, read-out: IC50 +BSO (MTC)", "result": 58.3, "unit": "µM"},
      {"measurement": "IC50", "setting": "Human 2780CP cell line; 2780CP, absence of BSO, read-out: IC50 Control", "result": 101, "unit": "µM"},
      {"measurement": "DMF +BSO (MTC)", "setting": "Human 2780CP cell line; Table 5, 2780CP, BSO at MTC", "result": 1.73},
      {"measurement": "DMF Control", "setting": "Human 2780CP cell line; Table 5, 2780CP, absence of BSO (reference)", "result": 1.00},
      {"measurement": "RF +BSO (MTC)", "setting": "Human 2780CP cell line; Table 6, 2780CP with BSO vs. A2780 without BSO", "result": 8.63},
      {"measurement": "RF Control", "setting": "Human 2780CP cell line; Table 6, 2780CP without BSO vs. A2780 without BSO", "result": 14.9},
      {"measurement": "increase in antitumor activity when combined with BSO", "setting": "Human 2780CP cell line; in both sensitive and resistant models (Table 2: A2780 and 2780CP)", "result": "less than 2 fold"},
      {"measurement": "IC50", "setting": "Human A2780 cell line; A2780, BSO at MTC, read-out: IC50 +BSO (MTC)", "result": 4.25, "unit": "µM"},
      {"measurement": "IC50", "setting": "Human A2780 cell line; A2780, absence of BSO, read-out: IC50 Control", "result": 6.75, "unit": "µM"},
      {"measurement": "DMF +BSO (MTC)", "setting": "Human A2780 cell line; Table 5, A2780, BSO at MTC", "result": 1.59},
      {"measurement": "DMF Control", "setting": "Human A2780 cell line; Table 5, A2780, absence of BSO (reference)", "result": 1.00},
      {"measurement": "RF Control", "setting": "Human A2780 cell line; Table 6, A2780 parent line without BSO (reference)", "result": 1.00},
      {"measurement": "IC50", "setting": "SKOV-3 cell line; [4]", "result": 21.1, "unit": "µM"},
      {"measurement": "IC50", "setting": "SKOV-3 cell line; [5]", "result": 33, "unit": "µM"},
      {"measurement": "DMF +BSO (MTC)", "setting": "SKOV-3 cell line; BSO at sub-MTC", "result": 1.56},
      {"measurement": "DMF Control", "setting": "SKOV-3 cell line", "result": 1.00},
      {"measurement": "RF +BSO (MTC)", "setting": "SKOV-3 cell line; Table 6, SKOV-3 with BSO vs. 2008 without BSO", "result": 14.9},
      {"measurement": "RF Control", "setting": "SKOV-3 cell line; Table 6, SKOV-3 without BSO vs. 2008 without BSO", "result": 23.2},
      {"measurement": "IC50", "setting": "2008/C13* cell line; 2008/C13*, BSO at MTC, read-out: IC50 +BSO (MTC)", "result": 10.4, "unit": "µM"},
      {"measurement": "IC50", "setting": "2008/C13* cell line; 2008/C13*, absence of BSO, read-out: IC50 Control", "result": 20.8, "unit": "µM"},
      {"measurement": "DMF +BSO (MTC)", "setting": "2008/C13* cell line; Table 5, 2008/C13*, BSO at MTC", "result": 2.00},
      {"measurement": "DMF Control", "setting": "2008/C13* cell line; Table 5, 2008/C13*, absence of BSO (reference)", "result": 1.00},
      {"measurement": "RF +BSO (MTC)", "setting": "2008/C13* cell line; Table 6, 2008/C13* with BSO vs. 2008 without BSO", "result": 7.32},
      {"measurement": "RF Control", "setting": "2008/C13* cell line; Table 6, 2008/C13* without BSO vs. 2008 without BSO", "result": 14.6},
      {"measurement": "increase in antitumor activity in combination with BSO, isolated publications", "setting": "[3]; isolated publications", "result": "up to 4 fold"},
      {"measurement": "increase in antitumor activity in combination with BSO, usual", "setting": "[3]; usually", "result": "under 2 fold"}
    ]},
    {"smiles": "CC(=O)[O][Pt]([NH2])([Cl])([Cl])([O]C(C)=O)[N]1CCCCCC1", "note": "[Complex 19]", "values": [
      {"measurement": "IC50", "setting": "SKOV-3 cell line; [4]", "result": 21.6, "unit": "µM"},
      {"measurement": "IC50", "setting": "SKOV-3 cell line; [5]", "result": 100, "unit": "µM"},
      {"measurement": "DMF +BSO (MTC)", "setting": "SKOV-3 cell line; BSO at sub-MTC", "result": 4.63},
      {"measurement": "DMF Control", "setting": "SKOV-3 cell line", "result": 1.00}
    ]},
    {"smiles": "[NH2][Pt]([OH])([OH])([Cl])([Cl])[N]1CCCCCC1", "note": "[Complex 18]", "values": [
      {"measurement": "IC50", "setting": "SKOV-3 cell line; [4]", "result": 14.2, "unit": "µM"},
      {"measurement": "IC50", "setting": "SKOV-3 cell line; [5]", "result": 140, "unit": "µM"},
      {"measurement": "DMF +BSO (MTC)", "setting": "SKOV-3 cell line; BSO at sub-MTC", "result": 9.86},
      {"measurement": "DMF Control", "setting": "SKOV-3 cell line", "result": 1.00}
    ]}
  ]
}
